Data: patent US8138191B2, “Inhibitor compounds and cancer treatment methods” (Critical Outcome Technologies Inc., priority 2007, dated 2012)
Like-named read-outs stand apart in the source and are kept apart here.

What was measured:
CYP2B6 = biological target: T1, CYP2B6 (Homo sapiens, UniProt P20813); assay: in vitro; conditions: both
T1 sequence (P20813 1-491): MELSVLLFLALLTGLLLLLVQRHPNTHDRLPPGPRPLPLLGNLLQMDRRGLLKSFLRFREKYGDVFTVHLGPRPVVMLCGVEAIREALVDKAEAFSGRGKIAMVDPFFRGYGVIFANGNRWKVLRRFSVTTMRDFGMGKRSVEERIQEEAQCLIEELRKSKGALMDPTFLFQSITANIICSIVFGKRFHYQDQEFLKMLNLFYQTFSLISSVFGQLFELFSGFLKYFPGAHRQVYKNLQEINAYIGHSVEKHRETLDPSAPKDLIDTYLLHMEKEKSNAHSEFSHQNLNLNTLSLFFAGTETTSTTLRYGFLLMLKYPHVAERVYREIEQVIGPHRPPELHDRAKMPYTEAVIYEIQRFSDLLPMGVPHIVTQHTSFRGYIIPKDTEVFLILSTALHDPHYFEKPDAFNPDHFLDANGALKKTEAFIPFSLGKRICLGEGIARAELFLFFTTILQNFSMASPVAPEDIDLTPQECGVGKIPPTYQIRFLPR

[1] = B-A Permeability (TC7, pH 7.4/7.4) + verapamil; assay type: in vitro ADME; conditions: human, Caco-2, pH 7.4, with verapamil (concentration not stated), 1.0E−05 M
[2] = test system: Akt kinase activity in SHP-77 cells; assay: Akt kinase activity (immunoprecipitated Akt, GSK-3 phosphorylation), SHP-77; conditions: SHP-77, 250 nM, 2-24 hrs
[3] = Metabolic Stability (liver microsomes, human); assay type: in vitro ADME
Description: Metabolic stability was determined in human (mixed gender and pool of 50) monkey (male Cynomolgus, pool of 6 or more), dog male, beagle, pool of 4 or more) and rat (male Sprague-Dawley, pool of 100 or more) liver microsomes. […] Four reference substrates (1 μM) were tested simultaneously with COTI-2. […] Peak areas corresponding to COTI-2 were recorded by HPLC-MS/MS. Metabolic stability, expressed as percent of COTI-2 remaining, was calculated by comparing the peak area of COTI-2 at 60 min to time zero.

CYP2D6 = CYP2D6 (Homo sapiens, UniProt P10635); assay: in vitro; assay type: in vitro ADME; conditions: both sexes
CYP2D6, sequence (P10635 whole entry): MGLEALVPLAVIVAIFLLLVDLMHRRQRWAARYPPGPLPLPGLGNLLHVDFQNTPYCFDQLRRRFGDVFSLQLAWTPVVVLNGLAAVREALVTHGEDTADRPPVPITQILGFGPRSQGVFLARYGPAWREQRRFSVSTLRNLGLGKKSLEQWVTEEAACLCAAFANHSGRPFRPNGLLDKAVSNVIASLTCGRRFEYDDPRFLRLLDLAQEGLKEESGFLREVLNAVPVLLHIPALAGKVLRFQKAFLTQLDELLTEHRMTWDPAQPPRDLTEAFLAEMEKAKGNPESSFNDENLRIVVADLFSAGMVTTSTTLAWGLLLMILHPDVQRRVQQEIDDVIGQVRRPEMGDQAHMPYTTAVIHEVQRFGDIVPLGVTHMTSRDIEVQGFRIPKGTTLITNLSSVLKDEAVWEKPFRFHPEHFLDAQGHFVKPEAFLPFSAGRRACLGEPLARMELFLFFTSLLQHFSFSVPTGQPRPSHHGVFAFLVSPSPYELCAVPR
Description: The final incubation volume was 200 μl. […] Peak areas corresponding to metabolite were recorded.

CYP2C8 = biological target: T2, CYP2C8 (Homo sapiens, UniProt P10632); assay: in vitro; conditions: both
T2 sequence (P10632 1-490): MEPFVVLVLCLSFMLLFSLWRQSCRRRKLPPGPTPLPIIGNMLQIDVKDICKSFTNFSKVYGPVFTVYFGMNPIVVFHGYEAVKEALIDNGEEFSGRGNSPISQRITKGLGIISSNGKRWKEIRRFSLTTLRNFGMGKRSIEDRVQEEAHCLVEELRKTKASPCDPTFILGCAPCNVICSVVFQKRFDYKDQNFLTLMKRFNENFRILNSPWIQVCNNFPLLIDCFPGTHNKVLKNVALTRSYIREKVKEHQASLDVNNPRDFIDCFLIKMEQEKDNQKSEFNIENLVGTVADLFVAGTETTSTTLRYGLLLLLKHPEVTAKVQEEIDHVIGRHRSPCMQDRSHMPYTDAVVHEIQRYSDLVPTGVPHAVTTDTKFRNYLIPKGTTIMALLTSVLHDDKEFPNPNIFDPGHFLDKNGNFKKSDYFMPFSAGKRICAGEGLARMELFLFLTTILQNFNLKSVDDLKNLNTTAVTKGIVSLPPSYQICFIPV

cleaved caspases 3 and 9 = assay: Cleaved caspase 3 and 9 by western blot after COTI-219; assay type: cell-based, human; conditions: 12 h incubation, dose-dependent increase
Description: Cell viability assays were performed 24 to 48 h following incubation with COTI-219 by the trypan blue exclusion method using a Beckman-Coulter Vi-CELL XR 2.03 automated cell counter. Routine laboratory methods were employed for the production of cellular lysates, protein quantitation, SDS-PAGE and western blotting. All antibodies were obtained from Cell Signaling (Erk1/2 #4695, Ras #3965, CDK2 #2546, PKCalpha #2056, EGFR #2232, and ERBB2 #2165).
In lung cancer, oncogenic Ras exerts anti-apoptotic effects, in part by up-regulating the multi-functional PKB/AKT kinase. Activated PKB/AKT phosphorylates and inhibits caspase 9 activation. In order to determine whether caspase 9 activation mediates COTI-219 apoptosis, cells were incubated for 12 h with vehicle or increasing concentrations of COTI-219 and the expression levels of cleaved caspases 3 and 9 were determined. There was a dose-dependent increase in the levels of both cleaved caspases, peaking at 0.5 μM of COTI-219. Beyond this concentration, activated caspase 9 was not detectable and there was a decline in cleaved caspase 3.

SMILES	inhibition at 15 min, 10 µM (CYP2B6; human liver microsomes, pH 7.4, probe bupropion (10 µM))	inhibition at 15 min, 10 µM (CYP2B6; liver microsomes, pH 7.4, probe bupropion)	recovery at 10 µM ([1]; 1st determination, read-out: Percent Recovery 1st)	recovery at 10 µM ([1]; 2nd determination, read-out: Percent Recovery 2nd)	recovery at 10 µM ([1]; mean, read-out: Percent Recovery Mean)	Akt kinase activity [2]	percent remaining at 60 min ([3]; 1.0 μM)	Mean Parent Remaining ([3]; 1.0E−06 M, 60 min, mean)	inhibition at 15 min, 10 µM (CYP2D6; human liver microsomes, pH 7.4, probe dextromethorphan (10 µM), CYP2D6, HLM, dextromethorphan substrate, 1.0E−05 M, read-out: % Inhibition of Control Values)	inhibition at 15 min, 10 µM (CYP2D6; liver microsomes, pH 7.4, probe dextromethorphan, CYP2D6, 10 μM, read-out: percent inhibition)	inhibition at 15 min, 10 µM (CYP2C8; human liver microsomes, pH 7.4, probe paclitaxel (10 µM))	inhibition at 15 min, 10 µM (CYP2C8; liver microsomes, pH 7.4, probe paclitaxel)	concentration at which levels of cleaved caspases 3 and 9 peak (cleaved caspases 3 and 9)
S=C(N/N=C1/CCCc2cccnc21)N1CCN(c2ccccn2)CC1 [COTI-2]	5%	< 50%	49%	46%	47%	more gradual decrease	31%	31%	2%	< 50%	10%	< 50%	
CN1CCN(C(=S)NN=C2c3ncccc3-c3cccnc32)CC1 [COTI-219]													0.5 µM
